Data: article PMC12071944, “Interaction Between Glucagon-like Peptide 1 and Its Analogs with Amyloid-β Peptide Affects Its Fibrillation and Cytotoxicity” (International Journal of Molecular Sciences, 2025)
“Also recorded” adds a separate entry of the source. Like-named read-outs stand apart in the source and are kept apart here. Values belong to the compound of their own block, whether it stands above or below them. Ends that are not written are not given here.

What was measured:
AD patients = settings: cited from earlier work; for cognition and memory: patients with mild cognitive impairment and AD, ref [16]
Source text: Worldwide, approximately 416 million individuals are affected by AD dementia, prodromal AD, or preclinical AD, accounting for 22% of the population aged 50 years and older.

[1] = Dynamic light scattering, quaternary structure of GLP-1RAs; assay type: physicochemical; settings: DLS, 25 °C, pH 7.4
Procedure: DLS measurements were carried out using a Zetasizer Nano ZS system (Malvern Instruments Ltd., Malvern, UK). The backscattered light from a 4 mW He-Ne laser at 632.8 nm was collected at an angle of 173°. […] The acquisition time for a single autocorrelation function was 100 s. The resulting autocorrelation functions were averaged values from three measurements. The volume-weighted size distributions were calculated using the following parameters for the buffer: the refractive index of 1.334 was measured using the RL3 refractometer (PZO, Warszawa, Poland); the viscosity value η = 0.95 mPa∙s was measured using a micro-rheology method with a water suspension of standard latex nanoparticles (NIST 3060A, Thermo Fisher Scientific, Waltham, MA, USA). The molecular mass and its standard deviation corresponding to the volume-weighted hydrodynamic radius MWRh distribution was calculated in approximation of a globular protein according to the equations from ref. [86]. The degree of multimerization was calculated as the MWRh/MWm ratio, where MWm is the molecular mass of the monomeric GLP-1RAs calculated from their molecular structure.

Aβ40 fibrillation = assay: ThT fluorescence assay of Aβ40 fibrillation; assay type: biochemical, Human; settings: 20 µM Aβ40, 10 µM GLP-1RA, 30 °C, pH 7.4
Procedure: The influence of GLP-1RAs on Aβ40 fibril formation at 30 °C was studied using the ThT fluorescence assay at ThT and GLP-1RA concentrations of 10 μM for both components (Figure 4).
Standard deviations of the fluorescence signals are indicated. Excitation wavelength of 440 nm.
The Aβ40 sample was prepared as described in ref. [82] with some modifications (~5 mM NaOH at pH 11.8, 0.5 mg/mL). […] The control curves (without Aβ40; Figure S1) were subtracted from the corresponding kinetic curves of Aβ40 samples with/without GLP-1RAs. Each measurement was performed in 2–10 repetitions. The mean fluorescence signal values for each experimental sample were normalized to the average fluorescence signal corresponding to the saturation phase of Aβ40 fibril formation without additives. Data are presented as mean ± standard deviation.

animal AD models = settings: ref [29]; cited from earlier work
[2] = cited from earlier work
SH-SY5Y cells [3] = assay: MTT assay, Aβ42 cytotoxicity toward SH-SY5Y cells; settings: 48 h
Procedure: (§1) GLP-1RAs were premixed with Aβ40/Aβ42 at an equimolar ratio in serum-free medium and added to the SH-SY5Y cells cultured in the same medium to a final concentration of both components of 10 µM. Staining with MTT was performed after incubation of the cells for 48 h.
(§2) Mean values and standard deviations are indicated.
(§3) Human neuroblastoma SH-SY5Y cells were cultured in DMEM-F12 medium supplemented with 1% penicillin-streptomycin-glutamine and 10% fetal bovine serum at 37 °C for 24 h in a humidified atmosphere with 5% CO2. Upon reaching 80% confluence, the cells were harvested and seeded into 96-well plates at a density of 15 × 10^5 cells per well in serum-free DMEM/F12 + PSG medium.
(§4) The Aβ40/Aβ42 samples were dissolved in fresh 1% NH4OH at a concentration of 0.5 mg/mL, followed by freeze-drying.
Freshly prepared Aβ40/Aβ42, GLP-1RAs, or their mixtures were added (100 µL per well) to the cultures 24 h after seeding to a final concentration of both components of 10 µM. The final volume of medium in the well was 200 µL. The MTT assay, designed to assess cellular metabolic activity, was performed after incubation of the cells for 48 h. MTT (0.005 mg/mL) was added and the cells were incubated for 3 h, followed by solubilization of the cells using DMSO. […] The resulting values were normalized relative to the control group of the untreated cells (100%). Data are presented as mean ± standard deviation (n = 5–10).

[4] = system: Aβ levels in the mouse brain; settings: in vivo; ref [30]; cited from earlier work
Source text: The N-terminally truncated forms of GLP-1, GLP-1(7-36)/(7-37), secreted from intestinal L cells, control meal-related glycemic excursions by augmentation of insulin expression and secretion and inhibition of glucagon release (reviewed in [21]). Some population of neurons in the nucleus tractus solitarii of the brainstem can also express GLP-1 [22, 23].

cultured neuronal cells = settings: ref [30], cited from earlier work
SH-SY5Y cells [5] = assay: MTT assay, Aβ (Aβ40/Aβ42) cytotoxicity toward SH-SY5Y cells; settings: 10 µM Aβ40/Aβ42 and 10 µM GLP-1RA, 48 h, summary table
Procedure: as §1, §2, §3, §4
(§5) Freshly prepared Aβ40/Aβ42, GLP-1RAs, or their mixtures were added (100 µL per well) to the cultures 24 h after seeding to a final concentration of both components of 10 µM. The final volume of medium in the well was 200 µL. The MTT assay, designed to assess cellular metabolic activity, was performed after incubation of the cells for 48 h. MTT (0.005 mg/mL) was added and the cells were incubated for 3 h, followed by solubilization of the cells using DMSO. […] The resulting values were normalized relative to the control group of the untreated cells (100%). […]

[6] = b29: plasma concentrations; ref [61],[62]; cited from earlier work
serum albumin (HSA) = settings: attached fatty acid chain; ref [44],[45]; cited from earlier work
SH-SY5Y cells [7] = assay: MTT assay, Aβ40 cytotoxicity toward SH-SY5Y cells; settings: 48 h
Procedure: as §1, §2, §3, §4, §5

APP/PS1 AD mice = settings: ref [47],[48],[49]; cited from earlier work
Aβ40 fibrils = assay: Negative-staining TEM of Aβ40 fibrils; assay type: biochemical, Human
Procedure: The scale bars represent 1 μm.
A copper grid (300-mesh) coated with a 0.2% formvar film was placed on a 10 µL drop of the sample. […] Excess stain was removed using filter paper, and the grid was rinsed in deionized water for 1 min. The samples were analyzed using a JEM-1400Plus (HC) transmission electron microscope (JEOL, Ltd., Tokyo, Japan) at an accelerating voltage of 80 keV.

Compound: insulin [intranasal insulin]
cognition and memory (AD patients): can improve cognition and memory

oligomerization, in words [1]: strong oligomerization | molecular mass from Rh (MWRh) ([1]; 5–83 µM, globular protein approximation): >7 × 10^5 kDa
Compound: CC[C@H](C)[C@H](NC(=O)[C@H](Cc1ccccc1)NC(=O)[C@H](CCC(=O)O)NC(=O)[C@H](CCCCN)NC(=O)[C@H](C)NC(=O)[C@H](C)NC(=O)[C@H](CCC(N)=O)NC(=O)CNC(=O)[C@H](CCC(=O)O)NC(=O)[C@H](CC(C)C)NC(=O)[C@H](Cc1ccc(O)cc1)NC(=O)[C@H](CO)NC(=O)[C@H](CO)NC(=O)[C@@H](NC(=O)[C@H](CC(=O)O)NC(=O)[C@H](CO)NC(=O)[C@@H](NC(=O)[C@H](Cc1ccccc1)NC(=O)[C@@H](NC(=O)CNC(=O)[C@H](CCC(=O)O)NC(=O)[C@H](C)NC(=O)[C@@H](N)Cc1c[nH]cn1)[C@@H](C)O)[C@@H](C)O)C(C)C)C(=O)N[C@@H](C)C(=O)N[C@@H](Cc1c[nH]c2ccccc12)C(=O)N[C@@H](CC(C)C)C(=O)N[C@H](C(=O)N[C@@H](CCCCN)C(=O)NCC(=O)N[C@@H](CCCNC(=N)N)C(=O)NCC(=O)O)C(C)C [GLP-1(7-37)]
Effect on Aβ40 Fibrillation (Figure 4 and Figure 5) (Aβ40 fibrillation; ThT assay and TEM, summary table): Inhibition | effect on Aβ40 fibrillation (Aβ40 fibrillation; ThT assay, 10 μM ThT, 25 mM Tris-HCl, 140 mM NaCl, ex 440/em 485 nm, 2–10 repetitions): inhibit Aβ40 fibrillation; also recorded: suppressed Aβ40 fibrillation; also recorded: suppression of Aβ40 fibrillation | AD Animal Data: learning and memory (animal AD models): Positive effects on learning and memory [29] | ability to cross the BBB ([2]; in vivo): possessed

Compound: amyloid-β peptide, residues 1-42 [Aβ42]
decrease in cell survival (SH-SY5Y cells [3]; 10 µM Aβ42 alone, n = 5–10): 37%

Compound: donanemab
side effects (AD patients; human, in vivo): brain edema and microhemorrhages

Compound: CN(C)C(=N)N=C(N)N [metformin]
cognition and memory (AD patients): can improve cognition and memory

Compound: GLP-1(7-36): N-terminally truncated form of glucagon-like peptide 1, residues 7-36 (HAEGTFTSDVSSYLEGQAAKEFIAWLVKGR; ends and bridges not checked; UniProt P01275 98-127, looked up)
Aβ levels in the mouse brain [4]: reduce Aβ levels in the mouse brain in vivo | protection against Aβ/iron-induced death (cultured neuronal cells; cultured hippocampal neurons): protects cultured hippocampal neurons against Aβ/iron-induced death | levels of APP (cultured neuronal cells; cultured neuronal cells): decrease levels of APP in cultured neuronal cells

Compound: CCCCCCCCCCCCCCCC(=O)N[C@@H](CCC(=O)NCCCC[C@H](NC(=O)[C@H](C)NC(=O)[C@H](C)NC(=O)[C@H](CCC(N)=O)NC(=O)CNC(=O)[C@H](CCC(=O)O)NC(=O)[C@H](CC(C)C)NC(=O)[C@H](Cc1ccc(O)cc1)NC(=O)[C@H](CO)NC(=O)[C@H](CO)NC(=O)[C@@H](NC(=O)[C@H](CC(=O)O)NC(=O)[C@H](CO)NC(=O)[C@@H](NC(=O)[C@H](Cc1ccccc1)NC(=O)[C@@H](NC(=O)CNC(=O)[C@H](CCC(=O)O)NC(=O)[C@H](C)NC(=O)[C@@H](N)Cc1cnc[nH]1)[C@@H](C)O)[C@@H](C)O)C(C)C)C(=O)N[C@@H](CCC(=O)O)C(=O)N[C@@H](Cc1ccccc1)C(=O)N[C@H](C(=O)N[C@@H](C)C(=O)N[C@@H](Cc1c[nH]c2ccccc12)C(=O)N[C@@H](CC(C)C)C(=O)N[C@H](C(=O)N[C@@H](CCCNC(=N)N)C(=O)NCC(=O)N[C@@H](CCCNC(=N)N)C(=O)NCC(=O)O)C(C)C)[C@@H](C)CC)C(=O)O [Lira, liraglutide]
Effect on Aβ Cytotoxicity to SH-SY5Y Cells (Figure 7) (SH-SY5Y cells [5]): Protection | peak plasma concentrations [6]: 20 to 120 nM | binding to serum albumin / clearance (serum albumin (HSA)): favors binding to serum albumin, thereby slowing the clearance of Lira | effect on Aβ40 cytotoxicity (SH-SY5Y cells [7]; 10 µM Aβ40 + 10 µM GLP-1RA, serum-free medium): abolished this effect | effect on Aβ42 cytotoxicity (SH-SY5Y cells [3]; 10 µM Aβ42 + 10 µM GLP-1RA, serum-free medium): abolished this effect; also recorded: most pronounced increase in the viability of SH-SY5Y cells | crosses the BBB (APP/PS1 AD mice): crosses the BBB | ability to cross the BBB ([2]; conclusions, ref Table 4): possessed

Compound: glucagon-like peptide 1 [GLP-1]
appearance of Aβ40 fibrils by TEM (Aβ40 fibrils; after ThT assay, 20 µM Aβ40 with 10 μM GLP-1RA, 1% uranyl acetate): sporadic small fibril clusters were still observed

Compound: amyloid-β peptide, residues 1-40 [Aβ40]
decrease in cell survival (SH-SY5Y cells [7]; 10 µM Aβ40 alone, n = 5–10): 22% | fibril length (Aβ40 fibrils; printed as "up to", Aβ40 with 10 μM GLP-1RA): up to 2 µm
